Test results: paper PMC7531004, “Discovery of gramicidin A analogues with altered activities by multidimensional screening of a one-bead-one-compound library” (Nature Communications, 2020)
Where a SMILES comes first, the peptide text is derived from it. [ ]: non-standard residue; d: D form. The star is where a group is joined. NHCH2CH2OH = OCCN*; For = O=C*

Assays:
[1] = H+/Na+ transport assay of bead-derived peptides (one-point); type: biochemical; design: key: relative activity; mean of two control wells = 1.00; details: bead-derived peptide solution, EYPC/EYPG LUVs;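 also: relative to parent gramicidin A activity set to 1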
Procedure, shortened: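 One-point screen: peptide + pyranine-loaded LUVs, 30 min RT with vortexing, 96-well. Read-out is fluorescence intensity scaled as 100 × (Ix – I0)/(Imax – I0). Imax from Triton X-100, I0 from untreated vesicles, and the mean of the two control wells is set to 1.00.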

[2] = system: P388 mouse leukemia cells; details: 92 h
Procedure, shortened: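 P388 cells at 1 × 10^4 cells/mL (final) were exposed to library peptides (stocks diluted 250-fold in RPMI1640/10% FBS) for 92 h at 37 °C, 5% CO2. Viable cells were counted by WST-1/1-methoxy PMS (4 h), absorbance 415 nm, and expressed as cell viability (%).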

[3] = system: Streptococcus pyogenes SSI-9; test: Antibacterial activity assay of bead-derived peptides (three concentrations); type: cell-based; design: key: +++: inhibition by the 640-fold diluted peptide solution; ++: inhibition by the 160-fold diluted solution; +: inhibition by the 40-fold diluted solution; -: no inhibition; details: S. pyogenes, bead-derived peptide solution, three concentrations
Procedure, shortened: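 Undiluted, 4-fold and 16-fold DMSO-diluted peptide stocks; S. pyogenes SSI-9, 2 × 10^5 CFU, cation-adjusted MHB (50 mg/L Ca2+, 25 mg/L Mg2+) + 5% laked horse blood; 37 °C, 18 h; readout = cell pellet visible or not.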

What does the source list for `CC(C)C[C@@H](NC(=O)[C@H](C)NC(=O)[C@H](NC(=O)[C@H](C)NC(=O)CNC(=O)[C@@H](NC=O)C(C)C)C(C)C)C(=O)N[C@H](C(=O)N[C@@H](C(=O)N[C@@H](Cc1c[nH]c2ccccc12)C(=O)N[C@@H](C(=O)N[C@@H](Cc1c[nH]c2ccccc12)C(=O)N[C@@H](C(=O)N[C@@H](Cc1c[nH]c2ccccc12)C(=O)N[C@H](CC(C)C)C(=O)N[C@@H](Cc1c[nH]c2ccccc12)C(=O)NCCO)C(C)C)C(C)C)[C@H](C)O)C(C)C` [compound 11143] (For-VGA[dV]A[dL]V[dT]W[dV]W[dV]W[dL]W-NHCH2CH2OH)?
H+/Na+ transport activity normalized against the value of 1 (1.00) [1]: 1.19; cell viability/% [2]: 63.4%; antibacterial activity [3]: -

With `CC(C)C[C@@H](NC(=O)[C@H](C)NC(=O)[C@H](NC(=O)[C@H](C)NC(=O)CNC(=O)[C@@H](NC=O)C(C)C)C(C)C)C(=O)N[C@H](C(=O)N[C@H](CC(C)C)C(=O)N[C@@H](Cc1c[nH]c2ccccc12)C(=O)N[C@H](CC(C)C)C(=O)N[C@@H](Cc1c[nH]c2ccccc12)C(=O)N[C@H](CC(C)C)C(=O)N[C@@H](Cc1c[nH]c2ccccc12)C(=O)N[C@@H](C(=O)N[C@@H](Cc1c[nH]c2ccccc12)C(=O)NCCO)[C@H](C)O)C(C)C` [compound 3365] (For-VGA[dV]A[dL]V[dL]W[dL]W[dL]W[dT]W-NHCH2CH2OH) as the compound, how does the “H+/Na+ transport activity normalized against the value of 1 (1.00)” value (shortened to “H+/Na+ transport activity normalized”) [1] read?
Its value is 1.03.

And the cell viability/% [2]?
Its cell viability/% is 100.0%.

And the antibacterial activity [3]?
The antibacterial activity was “+”.

Which results are given for `CC(C)C[C@@H](NC(=O)[C@H](Cc1c[nH]c2ccccc12)NC(=O)[C@H](NC(=O)[C@H](Cc1c[nH]c2ccccc12)NC(=O)[C@H](NC(=O)[C@@H](NC(=O)[C@H](NC(=O)[C@H](C)NC(=O)[C@H](NC(=O)[C@H](C)NC(=O)CNC(=O)[C@@H](NC=O)C(C)C)C(C)C)C(C)C)C(C)C)C(C)C)C(C)C)C(=O)N[C@@H](Cc1c[nH]c2ccccc12)C(=O)N[C@@H](C(=O)N[C@@H](Cc1c[nH]c2ccccc12)C(=O)NCCO)C(C)C` [compound 9571] (For-VGA[dV]A[dV]V[dV]W[dV]W[dL]W[dV]W-NHCH2CH2OH)?
H+/Na+ transport activity normalized against the value of 1 (1.00) [1]: 1.14; cell viability/% [2]: 100.0%; antibacterial activity [3]: +

Which “H+/Na+ transport activity normalized” value [1] does the source give for `CC(C)C[C@@H](NC(=O)[C@H](C)NC(=O)CNC(=O)[C@@H](NC=O)C(C)C)C(=O)N[C@@H](C)C(=O)N[C@@H](C(=O)N[C@H](C(=O)N[C@@H](C(=O)N[C@@H](Cc1c[nH]c2ccccc12)C(=O)N[C@H](CC(C)C)C(=O)N[C@@H](Cc1c[nH]c2ccccc12)C(=O)N[C@H](CC(C)C)C(=O)N[C@@H](Cc1c[nH]c2ccccc12)C(=O)N[C@@H](C(=O)N[C@@H](Cc1c[nH]c2ccccc12)C(=O)NCCO)C(C)C)[C@H](C)O)C(C)C)C(C)C` [compound 6702] (For-VGA[dL]A[dV]V[dT]W[dL]W[dL]W[dV]W-NHCH2CH2OH) here?
Its value is 1.03.

And the cell viability/% [2]?
The cell viability/% was 100.0%.

What about the antibacterial activity [3] of the same compound?
The antibacterial activity was “+”.

With `CNC(=O)C[C@@H](NC(=O)[C@@H](NC(=O)[C@@H](CC(C)C)NC(=O)[C@H](C)NC(=O)[C@@H](CC(C)C)NC(=O)[C@H](C)NC(=O)CNC(=O)[C@@H](NC=O)C(C)C)C(C)C)C(=O)N[C@@H](Cc1c[nH]c2ccccc12)C(=O)N[C@H](CC(C)C)C(=O)N[C@@H](Cc1c[nH]c2ccccc12)C(=O)N[C@H](CC(C)C)C(=O)N[C@@H](Cc1c[nH]c2ccccc12)C(=O)N[C@@H](C(=O)N[C@@H](Cc1c[nH]c2ccccc12)C(=O)NCCO)C(C)C` [compound 6851] (For-VGA[dL]A[dL]V[dD](NHMe)W[dL]W[dL]W[dV]W-NHCH2CH2OH) as the compound, how does the “H+/Na+ transport activity normalized” value [1] read?
The value was 1.16.

And the cell viability/% [2]?
The cell viability/% was 100.0%.

And the antibacterial activity [3]?
Its antibacterial activity is “-”.

For `CNC(=O)C[C@@H](NC(=O)[C@H](Cc1c[nH]c2ccccc12)NC(=O)[C@@H](CC(C)C)NC(=O)[C@H](Cc1c[nH]c2ccccc12)NC(=O)[C@@H](CC(C)C)NC(=O)[C@H](Cc1c[nH]c2ccccc12)NC(=O)[C@H](NC(=O)[C@@H](NC(=O)[C@H](NC(=O)[C@H](C)NC(=O)[C@@H](CC(C)C)NC(=O)[C@H](C)NC(=O)CNC(=O)[C@@H](NC=O)C(C)C)C(C)C)C(C)C)C(C)C)C(=O)N[C@@H](Cc1c[nH]c2ccccc12)C(=O)NCCO` [compound 11422] (For-VGA[dL]A[dV]V[dV]W[dL]W[dL]W[dD](NHMe)W-NHCH2CH2OH), which “H+/Na+ transport activity normalized” value [1] is on record?
The value was 1.04.

And the cell viability/% [2]?
Its cell viability/% is 47.4%.

And the antibacterial activity [3]?
The antibacterial activity was “+”.

For `CC(C)C[C@@H](NC(=O)[C@H](C)NC(=O)CNC(=O)[C@@H](NC=O)C(C)C)C(=O)N[C@@H](C)C(=O)N[C@@H](C(=O)N[C@H](C(=O)N[C@@H](C(=O)N[C@@H](Cc1c[nH]c2ccccc12)C(=O)N[C@H](CC(C)C)C(=O)N[C@@H](Cc1c[nH]c2ccccc12)C(=O)N[C@@H](C(=O)N[C@@H](Cc1c[nH]c2ccccc12)C(=O)N[C@H](CC(C)C)C(=O)N[C@@H](Cc1c[nH]c2ccccc12)C(=O)NCCO)C(C)C)[C@H](C)O)C(C)C)C(C)C` [compound 4279] (For-VGA[dL]A[dV]V[dT]W[dL]W[dV]W[dL]W-NHCH2CH2OH), which “H+/Na+ transport activity normalized” value [1] is on record?
The value was 1.05.

And the cell viability/% [2]?
Its cell viability/% is 98.8%.

And the antibacterial activity [3]?
Its antibacterial activity is “-”.

With `CC(C)C[C@@H](NC(=O)[C@H](Cc1c[nH]c2ccccc12)NC(=O)[C@H](NC(=O)[C@@H](NC(=O)[C@H](NC(=O)[C@H](C)NC(=O)[C@H](NC(=O)[C@H](C)NC(=O)CNC(=O)[C@@H](NC=O)C(C)C)[C@H](C)O)C(C)C)C(C)C)C(C)C)C(=O)N[C@@H](Cc1c[nH]c2ccccc12)C(=O)N[C@H](CC(C)C)C(=O)N[C@@H](Cc1c[nH]c2ccccc12)C(=O)N[C@@H](C(=O)N[C@@H](Cc1c[nH]c2ccccc12)C(=O)NCCO)C(C)C` [compound 6843] (For-VGA[dT]A[dV]V[dV]W[dL]W[dL]W[dV]W-NHCH2CH2OH) as the compound, how does the “H+/Na+ transport activity normalized” value [1] read?
The value was 1.15.

And the cell viability/% [2]?
Its cell viability/% is 100.0%.

And the antibacterial activity [3]?
Its antibacterial activity is “-”.

Which “H+/Na+ transport activity normalized” value [1] does the source give for `CC(C)C[C@@H](NC(=O)[C@H](C)NC(=O)[C@H](NC(=O)[C@H](C)NC(=O)CNC(=O)[C@@H](NC=O)C(C)C)C(C)C)C(=O)N[C@H](C(=O)N[C@@H](C(=O)N[C@@H](Cc1c[nH]c2ccccc12)C(=O)N[C@@H](C(=O)N[C@@H](Cc1c[nH]c2ccccc12)C(=O)N[C@H](CC(C)C)C(=O)N[C@@H](Cc1c[nH]c2ccccc12)C(=O)N[C@H](CC(C)C)C(=O)N[C@@H](Cc1c[nH]c2ccccc12)C(=O)NCCO)C(C)C)[C@H](C)O)C(C)C` [compound 7840] (For-VGA[dV]A[dL]V[dT]W[dV]W[dL]W[dL]W-NHCH2CH2OH) here?
The value was 1.12.

And the cell viability/% [2]?
Its cell viability/% is 100.0%.

And the antibacterial activity [3]?
The antibacterial activity was “-”.

What does the source list for `CNC(=O)C[C@@H](NC(=O)[C@@H](NC(=O)[C@@H](CC(C)C)NC(=O)[C@H](C)NC(=O)[C@H](NC(=O)[C@H](C)NC(=O)CNC(=O)[C@@H](NC=O)C(C)C)C(C)C)C(C)C)C(=O)N[C@@H](Cc1c[nH]c2ccccc12)C(=O)N[C@@H](C(=O)N[C@@H](Cc1c[nH]c2ccccc12)C(=O)N[C@@H](C(=O)N[C@@H](Cc1c[nH]c2ccccc12)C(=O)N[C@H](CC(C)C)C(=O)N[C@@H](Cc1c[nH]c2ccccc12)C(=O)NCCO)C(C)C)C(C)C` [compound 11226] (For-VGA[dV]A[dL]V[dD](NHMe)W[dV]W[dV]W[dL]W-NHCH2CH2OH)?
H+/Na+ transport activity normalized against the value of 1 (1.00) [1]: 1.04; cell viability/% [2]: 76.8%; antibacterial activity [3]: -

What does the source list for `CC(C)C[C@@H](NC(=O)[C@H](Cc1c[nH]c2ccccc12)NC(=O)[C@H](NC(=O)[C@H](Cc1c[nH]c2ccccc12)NC(=O)[C@H](NC(=O)[C@H](Cc1c[nH]c2ccccc12)NC(=O)[C@@H](CC(C)C)NC(=O)[C@@H](NC(=O)[C@H](NC(=O)[C@H](C)NC(=O)[C@H](NC(=O)[C@H](C)NC(=O)CNC(=O)[C@@H](NC=O)C(C)C)C(C)C)C(C)C)C(C)C)C(C)C)C(C)C)C(=O)N[C@@H](Cc1c[nH]c2ccccc12)C(=O)NCCO` [compound 97] (For-VGA[dV]A[dV]V[dL]W[dV]W[dV]W[dL]W-NHCH2CH2OH)?
H+/Na+ transport activity normalized against the value of 1 (1.00) [1]: 1.24; cell viability/% [2]: 59.7%; antibacterial activity [3]: +

Which “H+/Na+ transport activity normalized” value [1] does the source give for `CC(C)C[C@@H](NC(=O)[C@H](C)NC(=O)CNC(=O)[C@@H](NC=O)C(C)C)C(=O)N[C@@H](C)C(=O)N[C@@H](C(=O)N[C@H](C(=O)N[C@@H](C(=O)N[C@@H](Cc1c[nH]c2ccccc12)C(=O)N[C@H](CC(C)C)C(=O)N[C@@H](Cc1c[nH]c2ccccc12)C(=O)N[C@H](CC(C)C)C(=O)N[C@@H](Cc1c[nH]c2ccccc12)C(=O)N[C@@H](C(=O)N[C@@H](Cc1c[nH]c2ccccc12)C(=O)NCCO)C(C)C)[C@H](C)O)C(C)C)C(C)C` [compound 2235] (For-VGA[dL]A[dV]V[dT]W[dL]W[dL]W[dV]W-NHCH2CH2OH) here?
The value was 1.01.

And the cell viability/% [2]?
Its cell viability/% is 100.0%.

And the antibacterial activity [3]?
Its antibacterial activity is “+”.

Which “H+/Na+ transport activity normalized” value [1] does the source give for `CC(C)C[C@@H](NC(=O)[C@H](C)NC(=O)[C@H](NC(=O)[C@H](C)NC(=O)CNC(=O)[C@@H](NC=O)C(C)C)C(C)C)C(=O)N[C@H](C(=O)N[C@@H](C(=O)N[C@@H](Cc1c[nH]c2ccccc12)C(=O)N[C@@H](C(=O)N[C@@H](Cc1c[nH]c2ccccc12)C(=O)N[C@H](CC(C)C)C(=O)N[C@@H](Cc1c[nH]c2ccccc12)C(=O)N[C@@H](C(=O)N[C@@H](Cc1c[nH]c2ccccc12)C(=O)NCCO)[C@H](C)O)C(C)C)C(C)C)C(C)C` [compound 12285] (For-VGA[dV]A[dL]V[dV]W[dV]W[dL]W[dT]W-NHCH2CH2OH) here?
Its value is 1.01.

And the cell viability/% [2]?
Its cell viability/% is 100.0%.

What about the antibacterial activity [3] of the same compound?
The antibacterial activity was “-”.
